Experimental data published in publication PMC2898741 (Biochemistry, 2009).

Experiments:
[1] = biological target: T1, riboflavin binding protein (RfBP) (Gallus gallus, UniProt P02752)
T1 sequence (P02752 18-238): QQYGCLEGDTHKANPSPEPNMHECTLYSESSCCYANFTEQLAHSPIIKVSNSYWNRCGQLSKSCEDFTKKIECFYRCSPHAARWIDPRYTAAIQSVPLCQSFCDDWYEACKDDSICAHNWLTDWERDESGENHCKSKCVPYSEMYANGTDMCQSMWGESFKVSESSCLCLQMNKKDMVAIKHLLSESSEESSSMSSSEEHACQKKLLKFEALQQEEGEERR

ribonuclease A (RNase) = biological target: T2, ribonuclease A (RNase) (Bos taurus, UniProt P61823); type: binding
T2 sequence (P61823 27-150): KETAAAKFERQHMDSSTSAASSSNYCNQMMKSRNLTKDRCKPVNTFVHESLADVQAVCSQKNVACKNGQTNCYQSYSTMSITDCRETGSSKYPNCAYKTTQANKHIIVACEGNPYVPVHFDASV

[2] = biological target: T1, riboflavin binding protein (RfBP); remark: listed apart in the source

| Compound | absorbance and fluorescence titration; stopped-flow; DTNB protection [1] | absorbance and fluorescence titration; DTNB protection (ribonuclease A (RNase)) | absorbance (252 nm) and fluorescence titration; DTNB protection [2] |
| --- | --- | --- | --- |
| C[As](O)O [MMA] | PSAO and MMA bind almost quantitatively to reduced unfolded RfBP |  |  |
| O[As](O)O [arsenite] |  | Figure 7A demonstrates the binding of arsenite to reduced bovine pancreatic RNase using absorbance and fluorescence quenching | PSAO and arsenite also bind to reduced RfBP with a strong fluorescence quenching |
